This note sets out measurements from ChEMBL document CHEMBL1221373, “Lactarane sesquiterpenoids from Lactarius subvellereus and their cytotoxicity” (Bioorg Med Chem Lett, 2010).

Common to all, as to type: functional, cell-based
The subject of assay [1] is A549. Description: Cytotoxicity against human A549 cells by SRB assay.
Assay [2] concerns SK-MEL-2. Description: Cytotoxicity against human SK-MEL-2 cells by SRB assay. A general note: The SRB assay estimates cell density from bound dye.
For assay [3], the system named is SK-OV-3. Description: Cytotoxicity against human SKOV3 cells by SRB assay.
Assay [4] concerns HCT-15. Description: Cytotoxicity against human HCT15 cells by SRB assay.

A word on the IC50: it is the midpoint of a concentration-inhibition curve. Read a high IC50 as weaker potency.

On to `CC1(C)C[C@@H]2[C@H]([C@H]1O)[C@@](C)(O)CC1=C(C(=O)OC1)[C@H]2O` [5-DESOXYLACTAROLIDE B], for which the IC50 in assay [1] was 17.9 µM; in assay [2] it was more than 30 µM; in assay [3], more than 30 µM; in assay [4] it was 29.3 µM.
As to `COc1cccc2c1C(=O)c1c(O)c3c(c(O)c1C2=O)C[C@@](O)(C(=O)CO)C[C@@H]3O[C@H]1C[C@H](N)[C@H](O)[C@H](C)O1` [DOXORUBICIN], the IC50 in assay [2] is 0.002 µM; in assay [3], 0.001 µM; in assay [4] it was 0.028 µM.
For `CC1(C)C[C@H]2[C@H](O)c3cocc3C[C@](C)(O)[C@H]2C1` [FURANDIOL], the IC50 in assay [1], in assay [2], in assay [3] and in assay [4] was more than 30 µM throughout.
On to `CC1(C)C[C@H]2[C@H](O)C3=C(C[C@](C)(O)[C@H]2C1)C(=O)OC3O` (stereo partly specified) [LACTAROLIDE A], for which the IC50 is 22.9 µM in assay [1], 28.3 µM in assay [2], more than 30 µM in assay [3] and 28.6 µM in assay [4].
The like results for `CC1(C)C[C@H]2[C@H](O)C3=C(C[C@](C)(O)[C@H]2C1)C(=O)OC3` [LACTARORUFIN A] were, in that order, 27 µM, more than 30 µM, more than 30 µM and 20.9 µM.
Regarding `C[C@H]1CC2=C(COC2=O)C[C@@H]2[C@@H](O)[C@](C)(CO)C[C@@]21O` [SUBVELLEROLACTONES B], the IC50 is 26.5 µM in assay [1], 18.3 µM in assay [2], more than 30 µM in assay [3] and 14.2 µM in assay [4].
In the case of `C[C@@H]1[C@@H]2C(=CC3=C(C(=O)O[C@@H]3O)[C@@H]1O)CC(C)(C)[C@@H]2O` [SUBVELLEROLACTONES D], the IC50 in assay [1] was 25.1 µM; in assay [2] it was more than 30 µM; in assay [3], more than 30 µM; in assay [4], 17.8 µM.
`C[C@@H]1[C@@H]2C(=CC3=C(C(=O)O[C@H]3O)[C@@H]1O)CC(C)(C)[C@@H]2O` [SUBVELLEROLACTONES E]: the IC50 in assay [1] was 19.6 µM; in assay [2], more than 30 µM; in assay [3], more than 30 µM; in assay [4] it was 28.7 µM.
